From PubChem BioAssay (NCI)
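Tested at 5 concentrations; 48 h exposure; 96-well plates; endpoints linearly interpolated, else capped at highest concentration. TGI marks complete inhibition of growth.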

Tests used:
Assay in all cases: NCI anticancer screen, dose series, 48 h
786-0 renal = test system: 786-0 renal
A498 renal = test system: A498 renal
A549 NSCLC = test system: A549 NSCLC
ACHN renal = test system: ACHN renal
BT-549 breast = test system: BT-549 breast
CAKI-1 renal = test system: CAKI-1 renal
CCRF-CEM leukemia = test system: CCRF-CEM leukemia
COLO 205 colon = test system: COLO 205 colon
DU-145 prostate = test system: DU-145 prostate
EKVX NSCLC = test system: EKVX NSCLC
HCC-2998 colon = test system: HCC-2998 colon
HCT-116 colon = test system: HCT-116 colon
HCT-15 colon = test system: HCT-15 colon
HL-60(TB) leukemia = test system: HL-60(TB) leukemia
HOP-62 NSCLC = test system: HOP-62 NSCLC
HOP-92 NSCLC = test system: HOP-92 NSCLC
HS 578T breast = test system: HS 578T breast
HT29 colon = test system: HT29 colon
IGROV1 ovarian = test system: IGROV1 ovarian
K-562 leukemia = test system: K-562 leukemia
KM12 colon = test system: KM12 colon
LOX IMVI melanoma = test system: LOX IMVI melanoma
M14 melanoma = test system: M14 melanoma
MALME-3M melanoma = test system: MALME-3M melanoma
MCF7 breast = test system: MCF7 breast
MDA-MB-231 breast = test system: MDA-MB-231 breast
MDA-MB-435 = test system: MDA-MB-435
MDA-N = test system: MDA-N
MOLT-4 leukemia = test system: MOLT-4 leukemia
NCI-H226 lung = test system: NCI-H226 lung
NCI-H23 lung = test system: NCI-H23 lung
NCI-H460 lung = test system: NCI-H460 lung
NCI-H522 lung = test system: NCI-H522 lung
NCI/ADR-RES ovarian = test system: NCI/ADR-RES ovarian
OVCAR-3 ovarian = test system: OVCAR-3 ovarian
OVCAR-4 ovarian = test system: OVCAR-4 ovarian
OVCAR-5 ovarian = test system: OVCAR-5 ovarian
OVCAR-8 ovarian = test system: OVCAR-8 ovarian
PC-3 prostate = test system: PC-3 prostate
RPMI-8226 leukemia = test system: RPMI-8226 leukemia
RXF 393 renal = test system: RXF 393 renal
SF-268 CNS = test system: SF-268 CNS
SF-295 CNS = test system: SF-295 CNS
SF-539 CNS = test system: SF-539 CNS
SK-MEL-2 melanoma = test system: SK-MEL-2 melanoma
SK-MEL-28 melanoma = test system: SK-MEL-28 melanoma
SK-MEL-5 melanoma = test system: SK-MEL-5 melanoma
SK-OV-3 ovarian = test system: SK-OV-3 ovarian
SN12C renal = test system: SN12C renal
SNB-19 CNS = test system: SNB-19 CNS
SNB-75 CNS = test system: SNB-75 CNS
SR leukemia = test system: SR leukemia
SW-620 colon = test system: SW-620 colon
T-47D breast = test system: T-47D breast
TK-10 renal = test system: TK-10 renal
U251 CNS = test system: U251 CNS
UACC-257 melanoma = test system: UACC-257 melanoma
UACC-62 melanoma = test system: UACC-62 melanoma
UO-31 renal = test system: UO-31 renal

O=[N+]([O-])c1cc(F)ccc1Sc1ccccc1
TGI (786-0 renal): > 10 µM
TGI (A498 renal): > 10 µM
TGI (A549 NSCLC): > 10 µM
TGI (ACHN renal): > 10 µM
TGI (BT-549 breast): > 10 µM
TGI (CAKI-1 renal): > 10 µM
TGI (CCRF-CEM leukemia): > 10 µM
TGI (COLO 205 colon): > 10 µM
TGI (DU-145 prostate): > 10 µM
TGI (EKVX NSCLC): > 10 µM
TGI (HCC-2998 colon): > 10 µM
TGI (HCT-116 colon): > 10 µM
TGI (HCT-15 colon): > 10 µM
TGI (HL-60(TB) leukemia): > 10 µM
TGI (HOP-62 NSCLC): > 10 µM
TGI (HOP-92 NSCLC): > 10 µM
TGI (HS 578T breast): > 10 µM
TGI (HT29 colon): > 10 µM
TGI (IGROV1 ovarian): > 10 µM
TGI (K-562 leukemia): > 10 µM
TGI (KM12 colon): > 10 µM
TGI (LOX IMVI melanoma): > 10 µM
TGI (M14 melanoma): > 10 µM
TGI (MALME-3M melanoma): > 10 µM
TGI (MCF7 breast): > 10 µM
TGI (MDA-MB-231 breast): > 10 µM
TGI (MDA-MB-435): > 10 µM
TGI (MDA-N): > 10 µM
TGI (MOLT-4 leukemia): > 10 µM
TGI (NCI-H226 lung): > 10 µM
TGI (NCI-H23 lung): > 10 µM
TGI (NCI-H460 lung): > 10 µM
TGI (NCI-H522 lung): > 10 µM
TGI (NCI/ADR-RES ovarian): > 10 µM
TGI (OVCAR-3 ovarian): > 10 µM
TGI (OVCAR-4 ovarian): > 10 µM
TGI (OVCAR-5 ovarian): > 10 µM
TGI (OVCAR-8 ovarian): > 10 µM
TGI (PC-3 prostate): > 10 µM
TGI (RPMI-8226 leukemia): > 10 µM
TGI (RXF 393 renal): > 10 µM
TGI (SF-268 CNS): > 10 µM
TGI (SF-295 CNS): > 10 µM
TGI (SF-539 CNS): > 10 µM
TGI (SK-MEL-2 melanoma): > 10 µM
TGI (SK-MEL-28 melanoma): > 10 µM
TGI (SK-MEL-5 melanoma): > 10 µM
TGI (SK-OV-3 ovarian): > 10 µM
TGI (SN12C renal): > 10 µM
TGI (SNB-19 CNS): > 10 µM
TGI (SNB-75 CNS): > 10 µM
TGI (SR leukemia): > 10 µM
TGI (SW-620 colon): > 10 µM
TGI (T-47D breast): > 10 µM
TGI (TK-10 renal): > 10 µM
TGI (U251 CNS): > 10 µM
TGI (UACC-257 melanoma): > 10 µM
TGI (UACC-62 melanoma): > 10 µM

COc1cc(S(=O)(=O)Nc2ccc(-c3csc(/N=C\c4ccccc4)n3)cc2)ccc1Cl
TGI (786-0 renal): > 100 µM
TGI (A498 renal): > 100 µM
TGI (A549 NSCLC): > 100 µM
TGI (ACHN renal): > 100 µM
TGI (BT-549 breast): > 100 µM
TGI (CAKI-1 renal): > 100 µM
TGI (CCRF-CEM leukemia): > 100 µM
TGI (COLO 205 colon): > 100 µM
TGI (DU-145 prostate): > 100 µM
TGI (EKVX NSCLC): > 100 µM
TGI (HCT-116 colon): > 100 µM
TGI (HCT-15 colon): > 100 µM
TGI (HL-60(TB) leukemia): > 100 µM
TGI (HOP-62 NSCLC): > 100 µM
TGI (HOP-92 NSCLC): > 100 µM
TGI (HS 578T breast): > 100 µM
TGI (HT29 colon): > 100 µM
TGI (IGROV1 ovarian): > 100 µM
TGI (K-562 leukemia): > 100 µM
TGI (KM12 colon): > 100 µM
TGI (LOX IMVI melanoma): > 100 µM
TGI (M14 melanoma): > 100 µM
TGI (MALME-3M melanoma): > 100 µM
TGI (MCF7 breast): 49.9 µM
TGI (MDA-MB-231 breast): > 100 µM
TGI (MDA-MB-435): > 100 µM
TGI (MDA-N): > 100 µM
TGI (MOLT-4 leukemia): 52.1 µM
TGI (NCI-H226 lung): > 100 µM
TGI (NCI-H23 lung): > 100 µM
TGI (NCI-H522 lung): > 100 µM
TGI (NCI/ADR-RES ovarian): > 100 µM
TGI (OVCAR-3 ovarian): > 100 µM
TGI (OVCAR-4 ovarian): > 100 µM
TGI (OVCAR-5 ovarian): > 100 µM
TGI (OVCAR-8 ovarian): > 100 µM
TGI (PC-3 prostate): > 100 µM
TGI (RPMI-8226 leukemia): > 100 µM
TGI (RXF 393 renal): > 100 µM
TGI (SF-268 CNS): > 100 µM
TGI (SF-295 CNS): > 100 µM
TGI (SF-539 CNS): > 100 µM
TGI (SK-MEL-2 melanoma): 60.6 µM
TGI (SK-MEL-28 melanoma): > 100 µM
TGI (SK-MEL-5 melanoma): > 100 µM
TGI (SK-OV-3 ovarian): > 100 µM
TGI (SN12C renal): > 100 µM
TGI (SNB-19 CNS): > 100 µM
TGI (SNB-75 CNS): > 100 µM
TGI (SR leukemia): > 100 µM
TGI (SW-620 colon): > 100 µM
TGI (T-47D breast): > 100 µM
TGI (UACC-62 melanoma): > 100 µM
TGI (UO-31 renal): > 100 µM
